In the test the target is T1, USP1/UAF1 (Homo sapiens, UniProt O94782).
T1 construct: purchased R&D Systems
Put plainly: Deubiquitination assay for USP1/UAF1 (ubiquitin-rhodamine 110 substrate). The test is classed as biochemical. As to conditions: 0.5 nM USP1/UAF1, 150 nM ubiquitin-rhodamine, 50% inhibition compared to DMSO control. As to the method:
Deubiquitination assay for USP1/UAF1: compounds described here were tested for their ability to inhibit USP1 deubiquitinase activity in this assay using ubiquitin-rhodamine 110 as the substrate. The assay was conducted in the assay buffer (50 mM Tris-HCl, pH 7.8, 0.5 mM EDTA, 0.1 mg/ml Bovine Serum Albumin, 1 mM DTT, 0.01% Tween-20) in 384 well plates. 0.5 nM USP1/UAF1 (R&D Systems) was incubated with compounds in dose response format for 10 minutes at room temperature. Then the reaction was initiated by addition of 150 nM ubiquitin-rhodamine (R&D Systems). The fluorescence intensity was read after 45 minutes at Ex488/Em535 by CLARIOstar (BMG Labtech). IC50 response curves were plotted.

pIC50: −log10 of the molar value.

T1 sequence (O94782 whole entry): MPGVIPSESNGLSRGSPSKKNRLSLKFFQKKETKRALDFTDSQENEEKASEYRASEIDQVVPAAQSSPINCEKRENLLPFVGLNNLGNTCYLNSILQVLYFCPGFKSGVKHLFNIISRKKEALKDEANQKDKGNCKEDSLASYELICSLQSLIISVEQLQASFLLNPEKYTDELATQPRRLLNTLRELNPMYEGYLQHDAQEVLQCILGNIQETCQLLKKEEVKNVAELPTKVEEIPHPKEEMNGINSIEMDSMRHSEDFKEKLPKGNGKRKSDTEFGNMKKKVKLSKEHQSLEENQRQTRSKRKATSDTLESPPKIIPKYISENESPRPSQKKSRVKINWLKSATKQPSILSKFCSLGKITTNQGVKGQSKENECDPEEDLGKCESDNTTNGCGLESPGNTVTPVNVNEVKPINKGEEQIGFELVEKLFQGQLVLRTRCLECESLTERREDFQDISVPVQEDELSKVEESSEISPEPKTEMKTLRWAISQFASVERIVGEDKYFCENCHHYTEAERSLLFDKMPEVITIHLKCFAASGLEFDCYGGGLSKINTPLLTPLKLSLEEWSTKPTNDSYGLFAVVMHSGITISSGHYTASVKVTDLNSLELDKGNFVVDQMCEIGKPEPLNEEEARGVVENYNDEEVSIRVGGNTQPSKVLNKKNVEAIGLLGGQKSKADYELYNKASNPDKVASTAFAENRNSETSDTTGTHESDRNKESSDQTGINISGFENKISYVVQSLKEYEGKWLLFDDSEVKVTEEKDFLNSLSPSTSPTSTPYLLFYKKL
T1 sequence (Q8TAF3 whole entry partner): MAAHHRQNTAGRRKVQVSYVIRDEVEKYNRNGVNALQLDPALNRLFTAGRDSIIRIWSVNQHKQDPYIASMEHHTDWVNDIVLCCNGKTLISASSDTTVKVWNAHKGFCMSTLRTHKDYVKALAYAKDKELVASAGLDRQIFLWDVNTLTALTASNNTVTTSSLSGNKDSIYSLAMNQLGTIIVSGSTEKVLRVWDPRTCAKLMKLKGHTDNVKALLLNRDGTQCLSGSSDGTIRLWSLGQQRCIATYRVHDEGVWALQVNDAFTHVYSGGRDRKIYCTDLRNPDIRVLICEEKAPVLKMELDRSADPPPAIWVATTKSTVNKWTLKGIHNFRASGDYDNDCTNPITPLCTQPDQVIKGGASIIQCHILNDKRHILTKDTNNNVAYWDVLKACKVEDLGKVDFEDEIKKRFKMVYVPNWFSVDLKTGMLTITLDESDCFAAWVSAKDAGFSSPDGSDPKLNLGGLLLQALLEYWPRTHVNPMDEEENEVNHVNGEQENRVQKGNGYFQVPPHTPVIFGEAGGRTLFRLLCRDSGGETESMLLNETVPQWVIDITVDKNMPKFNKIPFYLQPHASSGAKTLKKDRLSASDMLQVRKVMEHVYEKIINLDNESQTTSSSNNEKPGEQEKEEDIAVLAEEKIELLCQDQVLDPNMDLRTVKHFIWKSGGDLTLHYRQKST

What is called pIC50 is the IC50 on a negative log10 scale, so that one unit is a factor of ten. A high value points to a small IC50. As for `FC(F)(F)c1cc(C2CC2)n(-c2ccc3c(c2)NCCCOc2c(ncnc2C2CC2)-c2ncc4cnn(c4n2)C3)n1` [Example 36, 1-cyclopropyl-4-(5-cyclopropyl-3-(trifluoromethyl)-1H-pyrazol-1-yl)-21H-9-oxa-5-aza-2(6,1)-pyrazolo[3,4-d]pyrimidina-1(5,4)-pyrimidina-4(1,2)-benzenacyclononaphane], the pIC50 is not below 7.00.
In turn, `CC(C)n1cc(C(F)(F)F)nc1-c1ccc2cc1NCCOc1ncnc(C3CC3)c1-c1ncc3cnn(c3n1)C2` [Example 40, 1^6-cyclopropyl-4^4-(1-isopropyl-4-(trifluoromethyl)-1H-imidazol-2-yl)-2H-8-oxa-5-aza-2(6,1)-pyrazolo[3,4-d]pyrimidina-1(5,4)-pyrimidina-4(1,3)-benzenacyclooctaphane] gave a negative-log IC50 (pIC50) not below 7.00.
In the case of `FC(F)(F)c1cn(C2CC2)c(-c2ccc3c(c2)OCCOc2ncnc(C4CC4)c2-c2ncc4ccc(n4n2)C3)n1` [Example 21, (Z)-1^6-cyclopropyl-4^4-(1-cyclopropyl-4-(trifluoromethyl)-1H-imidazol-2-yl)-5,8-dioxa-2(2,7)-pyrrolo[2,1-f][1,2,4]triazina-1(5,4)-pyrimidina-4(1,2)-benzenacyclooctaphane] it was not below 7.00.
Compound `CC(C)n1cc(C(F)(F)F)nc1-c1ccc2c(c1)OCCCOc1ncnc(C3CC3)c1-c1ncc3ccc(=O)n(c3n1)C2` [Example 17, 1^6-cyclopropyl-4^4-(1-isopropyl-4-(trifluoromethyl)-1H-imidazol-2-yl)-2^7,2^8-dihydro-5,9-dioxa-2(2,8)-pyrido[2,3-d]pyrimidina-1(5,4)-pyrimidina-4(1,2)-benzenacyclononaphan-2^7-one] gave a negative logarithm of the IC50 (pIC50) not below 7.00.
In the case of `FC(F)(F)c1cn(C2CC2)c(-c2ccc3c(c2)CCCOc2ncnc(C4CC4)c2-c2ncc4ccc(n4n2)C3)n1` [Example 32, (Z)-1^6-cyclopropyl-4^4-(1-cyclopropyl-4-(trifluoromethyl)-1H-imidazol-2-yl)-8-oxa-2(2,7)-pyrrolo[2,1-f][1,2,4]triazina-1(5,4)-pyrimidina-4(1,2)-benzenacyclooctaphane] it was not below 7.00.
To `Cc1cnc2nc1NCc1ccc(-c3nc(C(F)(F)F)cn3C(C)C)cc1OCCOc1ncnc(C3CC3)c1-2` [Example 1, 1^6-cyclopropyl-5^4-(1-isopropyl-4-(trifluoromethyl)-1H-imidazol-2-yl)-2^5-methyl-6,9-dioxa-3-aza-1(5,4),2(2,4)-dipyrimidina-5(1,2)-benzenacyclononaphane] belongs not below 7.00; to `FC(F)(F)c1cn(C2CC2)c(-c2ccc3c(c2)NCCOc2ncnc(C4CC4)c2-c2ncc4ccc(n4n2)C3)n1` [Example 42, (Z)-1^6-cyclopropyl-4^4-(1-cyclopropyl-4-(trifluoromethyl)-1H-imidazol-2-yl)-8-oxa-5-aza-2(2,7)-pyrrolo[2,1-f][1,2,4]triazina-1(5,4)-pyrimidina-4(1,2)-benzenacyclooctaphane], not below 7.00.
In the case of `CC(C)n1cc(C(F)(F)F)nc1-c1ccc2cc1CCCCOc1ncnc(C3CC3)c1-c1ncc3cnn(c3n1)C2` [Example 45, 1^6-cyclopropyl-4^4-(1-isopropyl-4-(trifluoromethyl)-1H-imidazol-2-yl)-2^1H-9-oxa-2(6,1)-pyrazolo[3,4-d]pyrimidina-1(5,4)-pyrimidina-4(1,3)-benzenacyclononaphane] it was not below 7.00; in that of `CC(C)n1cc(C(F)(F)F)nc1-c1ccc2cc1OCCOc1ncnc(C3CC3)c1-c1ncc3cnn(c3n1)C2` [Example 29, 1^6-cyclopropyl-44-(1-isopropyl-4-(trifluoromethyl)-1H-imidazol-2-yl)-2^1H-5,8-dioxa-2(6,1)-pyrazolo[3,4-d]pyrimidina-1(5,4)-pyrimidina-4(1,3)-benzenacyclooctaphane], not below 7.00.
Regarding “1^6-cyclopropyl-4^4-(1-isopropyl-4-(trifluoromethyl)-1H-imidazol-2-yl)-2^1-methyl-2^1H-5,8-dioxa-2(5,3)-pyrazolo[4,3-d]pyrimidina-1(5,4)-pyrimidina-4(1,2)-benzenacyclooctaphane [Example 22]”, the negative logarithm of the IC50 (pIC50) was not below 7.00.
Turning to `CC(C)n1cc(C(F)(F)F)nc1-c1ccc2cc1OCCCOc1ncnc(C3CC3)c1-c1ncc3ccc(=O)n(c3n1)C2` [Example 49, 1^6-cyclopropyl-4^4-(1-isopropyl-4-(trifluoromethyl)-1H-imidazol-2-yl)-2^7,2^8-dihydro-5,9-dioxa-2(2,8)-pyrido[2,3-d]pyrimidina-1(5,4)-pyrimidina-4(1,3)-benzenacyclononaphan-27-one], the pIC50 was not below 7.00.
Compound `CC(C)n1cc(C(F)(F)F)nc1-c1ccc2c(c1)OCCCNc1ncnc(C3CC3)c1-c1ncc3ccc(=O)n(c3n1)C2` [Example 19, 1^6-cyclopropyl-4^4-(1-isopropyl-4-(trifluoromethyl)-1H-imidazol-2-yl)-2^7,2^8-dihydro-5-oxa-9-aza-2(2,8)-pyrido[2,3-d]pyrimidina-1(5,4)-pyrimidina-4(1,2)-benzenacyclononaphan-2^7-one] showed a pIC50 of 6.00 to 7.00.
In the case of `CC(C)n1cc(C(F)(F)F)nc1-c1ccc2c(c1)NCCCOc1cccc(C3CC3)c1-c1ncc3cnn(c3n1)C2` [Example 26, 1^6-cyclopropyl-4^4-(1-isopropyl-4-(trifluoromethyl)-1H-imidazol-2-yl)-2^1H-9-oxa-5-aza-2(6,1)-pyrazolo[3,4-d]pyrimidina-1,4(1,2)-dibenzenacyclononaphane] it was not below 7.00; in that of `CC(C)n1cc(C(F)(F)F)nc1-c1ccc2c(c1)OCCCOc1ncnc(C3CC3)c1-c1ncc3cnn(c3n1)C2` [Example 5, 1^6-cyclopropyl-4^4-(1-isopropyl-4-(trifluoromethyl)-1H-imidazol-2-yl)-2^1H-5,9-dioxa-2(6,1)-pyrazolo[3,4-d]pyrimidina-1(5,4)-pyrimidina-4(1,2)-benzenacyclononaphane], not below 7.00; in that of `CC(C)n1cc(C(F)(F)F)nc1-c1ccc2cc1OCCCCOc1ncnc(C3CC3)c1-c1ncc3cnn(c3n1)C2` [Example 48, 1^6-cyclopropyl-4^4-(1-isopropyl-4-(trifluoromethyl)-1H-imidazol-2-yl)-2^1H-5,10-dioxa-2(6,1)-pyrazolo[3,4-d]pyrimidina-1(5,4)-pyrimidina-4(1,3)-benzenacyclodecaphane], 6.00 to 7.00.
To `CC(C)n1cc(C(F)(F)F)nc1-c1ccc2c(c1)OCCOc1ncnc(C3CC3)c1-c1ncc3cnn(c3n1)C2` [Example 2, 1^6-cyclopropyl-4^4-(1-isopropyl-4-(trifluoromethyl)-1H-imidazol-2-yl)-2^1H-5,8-dioxa-2(6,1)-pyrazolo[3,4-d]pyrimidina-1(5,4)-pyrimidina-4(1,2)-benzenacyclooctaphane] belongs not below 7.00.
In the case of `CC(C)n1cc(C(F)(F)F)nc1-c1ccc2c(c1)OCCOc1ncnc(C3CC3)c1-c1ncc3ccc(=O)n(c3n1)C2` [Example 16, 1^6-cyclopropyl-4^4-(1-isopropyl-4-(trifluoromethyl)-1H-imidazol-2-yl)-2^7,2^8-dihydro-5,8-dioxa-2(2,8)-pyrido[2,3-d]pyrimidina-1(5,4)-pyrimidina-4(1,2)-benzenacyclooctaphan-2^7-one], the pIC50 is not below 7.00.
Consider `FC(F)(F)c1cn(C2CC2)c(-c2ccc3c(c2)NCCCOc2ncnc(C4CC4)c2-c2ncc4ccc(n4n2)C3)n1` [Example 41, (Z)-1^6-cyclopropyl-4^4-(1-cyclopropyl-4-(trifluoromethyl)-1H-imidazol-2-yl)-9-oxa-5-aza-2(2,7)-pyrrolo[2,1-f][1,2,4]triazina-1(5,4)-pyrimidina-4(1,2)-benzenacyclononaphane], for which the negative logarithm of the IC50 (pIC50) was not below 7.00.
`CC(C)n1cc(C(F)(F)F)nc1-c1ccc2c(c1)NCCOc1ncnc(C3CC3)c1-c1ncc3ccc(=O)n(c3n1)C2` [Example 24, 1^6-cyclopropyl-4^4-(1-isopropyl-4-(trifluoromethyl)-1H-imidazol-2-yl)-2^7,2^8-dihydro-8-oxa-5-aza-2(2,8)-pyrido[2,3-d]pyrimidina-1(5,4)-pyrimidina-4(1,2)-benzenacyclooctaphan-2^7-one] showed a pIC50 not below 7.00.
On to `CC(C)n1cc(C(F)(F)F)nc1-c1ccc2c(c1)OCCOc1ncnc(C3CC3)c1-c1ncc3ccc(n3n1)C2` [Example 31, (Z)-1^6-cyclopropyl-4^4-(1-isopropyl-4-(trifluoromethyl)-1H-imidazol-2-yl)-5,8-dioxa-2(2,7)-pyrrolo[2,1-f][1,2,4]triazina-1(5,4)-pyrimidina-4(1,2)-benzenacyclooctaphane], for which the pIC50 was not below 7.00.
On to `CC(C)n1cc(C(F)(F)F)nc1-c1ccc2c(c1)SCCOc1ncnc(C3CC3)c1-c1ncc3cnn(c3n1)C2` [Example 27, 1^6-cyclopropyl-4^4-(1-isopropyl-4-(trifluoromethyl)-1H-imidazol-2-yl)-2^1H-8-oxa-5-thia-2(6,1)-pyrazolo[3,4-d]pyrimidina-1(5,4)-pyrimidina-4(1,2)-benzenacyclooctaphane], for which the pIC50 is not below 7.00.
In the case of `CC(C)n1cc(C(F)(F)F)nc1-c1ccc2c(c1)/C=C/COc1ncnc(C3CC3)c1-c1ncc3cnn(c3n1)C2` [Example 30, (E)-1^6-cyclopropyl-4^4-(1-isopropyl-4-(trifluoromethyl)-1H-imidazol-2-yl)-2^1H-8-oxa-2(6,1)-pyrazolo[3,4-d]pyrimidina-1(5,4)-pyrimidina-4(1,2)-benzenacyclooctaphan-5-ene] it was not below 7.00; in that of `O=c1ccc2cnc3nc2n1Cc1ccc(-c2nc(C(F)(F)F)cn2C2CC2)cc1CCOc1c-3ncnc1C1CC1` [Example 18, 1^6-cyclopropyl-4^4-(1-cyclopropyl-4-(trifluoromethyl)-1H-imidazol-2-yl)-2^7,2^8-dihydro-7-oxa-2(2,8)-pyrido[2,3-d]pyrimidina-1(5,4)-pyrimidina-4(1,2)-benzenacycloheptaphan-2^7-one], not above 6.00.

The values are drawn from patent US20260285876A1, “MACROCYCLIC COMPOUNDS AS USP1 INHIBITORS” (GUANGDONG NEWOPP BIOPHARMACEUTICALS CO., LTD., priority 2023, published 2026).
